Assays:
[1] = biological target: T1, activated human blood coagulation factor X (Homo sapiens, UniProt P00742); assay: Determination of activity of inhibiting the activated blood-coagulation factor X (chromogenic substrate, initial rate); type: biochemical; details: negative logarithm of concentration inhibiting 50% of initial rate, tris hydrochloride buffer pH 8.4, room temperature; for IC50: read-out: Activity of inhibiting activated blood coagulation factor X (pIC50) (converted)
T1 construct: purchased Enzyme Research Co
Method: Determination of Activity of inhibiting the Activated Blood-coagulation Factor X
130 μl of 100 mM tris hydrochloride buffer adjusted to pH 8.4 was added to 10 μl of an aqueous solution of a compound to be tested. Then 10 μl of a 0.5 unit/ml solution of activated human blood coagulation factor X (a product of Enzyme Research Co.) in tris hydrochloride buffer of pH 8.4 was added to the resultant mixture. After the incubation at room temperature for 10 minutes, 50 μl of a solution of N-benzoyl-L-isoleucyl-L-glutamyl-glycyl-L-arginyl-P-nitroanilide hydrochloride (a product of Peptide Institute Inc.) adjusted to 0.8 mM with tris hydrochloride (pH 8.4) was added thereto. The a absorbance was determined and then the initial reaction rate was determined. A control was prepared in the same manner as that described above except that the solution of the compound to be tested was replaced with 10 μl of tris hydrochloride buffer adjusted to pH 8.4. The absorbance was determined with MICROPLATE READER Model 3550-UV (a product of BIO RAD) at a wave length of 405 nm at intervals of 15 seconds for 16 minutes.

blood plasma = assay: Determination of blood anticoagulating activity by prothrombin time (PT) determination method; type: biochemical, human; details: negative logarithm of concentration which elongated PT of the control to twice as long; blood plasma of healthy people
Method: Determination of Blood Anticoagulating Activity
The blood anticoagulating activity was determined by a prothrombin time (PT) determination method. The PT was determined as follows: The blood was taken from healthy people. 3.8% aqueous trisodium citrate solution was added to the blood in a volume ratio of 1:10. The blood plasma was separated by the centrifugation. 5 μl of DMSO solution containing a test compound was added to 45 μl of the blood plasma. After the incubation apt room temperature for 2 minutes, a test tube containing the blood plasma solution was placed in Sysmex CA-3000 fully automatic blood coagulation determination device (a product of Toa Medical Electronics Co., Ltd), and incubated at 37° C. for 3 minutes. 100 μl of Sysmex PT II (rabbit brain tissue thromboplastin, 13.2 mM calcium chloride; a product of Toa Medical Electronics Co., Ltd) was fed into the test tube. PT was automatically determined with the device. A sample containing 5 μl of DMSO in place of the solution of the test compound was used as the control. The negative logarithm (pPT2) of the concentration of the test compound which elongated PT of the control to the twice as long was determined, and employed as the index of the blood anticoagulating activity.

human thrombin = biological target: T2, human thrombin (Homo sapiens, UniProt P00734); assay: Determination of thrombin-inhibiting activity (chromogenic substrate S-2238, initial rate); type: biochemical; details: negative logarithm of concentration inhibiting 50% of initial rate, tris hydrochloride buffer pH 8.4, room temperature; for IC50: read-out: Thrombin-inhibiting activity (pIC50) (converted)
T2 construct: solution of human thrombin (a product of SIGMA Co.); purchased SIGMA Co
Method: Determination of Thrombin-inhibiting Activity
130 μL of 100 mM tris hydrochloride buffer adjusted to pH 8.4 was added to 10 μl of an aqueous solution of a test compound. Then 10 μl of a solution of human thrombin (a product of SIGMA Co.) adjusted to 2 units/ml with tris hydrochloride buffer of pH 8.4 was added to the resultant mixture. After the incubation at room temperature for 10 minutes, 50 μl of a solution of D-phenylalanine-L-pipecolyl-L-arginine-P-nitroanilide dihydrochloride (S-2238; a product of Daiichi Kagaku Yakuhin Co.) adjusted to 0.4 mM with tris hydrochloride buffer of pH 8.4 was added thereto. The absorbance was determined and then the initial reaction rate was determined. A control was prepared in the same manner as that described above except that the solution of the compound to be tested was replaced with 10 μl of tris hydrochloride buffer adjusted to pH 8.4. The absorbance was determined with MICROPLATE READER Model 3550-UV (a product of BIO RAD) at a wave length of 405 nm at intervals of 15 seconds for 16 minutes. The negative logarithm (pIC50) of a concentration of the test compound which inhibits 50% of the activity (initial rate) of the thrombin in the absence of the test compound was determined, and employed as the index of the activity of inhibiting thrombin.

T1 sequence (P00742 235-488 limits assumed): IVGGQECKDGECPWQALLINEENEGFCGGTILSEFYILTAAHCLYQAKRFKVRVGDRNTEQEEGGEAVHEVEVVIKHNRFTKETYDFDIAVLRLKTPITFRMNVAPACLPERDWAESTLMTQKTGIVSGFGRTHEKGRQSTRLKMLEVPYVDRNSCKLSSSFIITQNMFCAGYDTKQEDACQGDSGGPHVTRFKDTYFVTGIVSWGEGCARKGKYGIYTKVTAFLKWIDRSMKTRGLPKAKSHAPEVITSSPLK
T1 sequence (P00742 41-179 partner limits assumed): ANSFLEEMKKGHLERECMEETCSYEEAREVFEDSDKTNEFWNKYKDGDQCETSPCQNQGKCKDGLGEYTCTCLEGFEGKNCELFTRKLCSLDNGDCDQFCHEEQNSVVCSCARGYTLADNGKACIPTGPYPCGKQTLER

IC50 [1] [nM] | IC50 (human thrombin) [nM] | Activity of inhibiting activated blood coagulation factor X (pIC50) [1] | Thrombin-inhibiting activity (pIC50) (human thrombin) | Compound | Human blood anticoagulating activity (pPT2) (blood plasma)
39.8 | 63100 | – | – | O=C(CCc1ccc2c(c1)N(Cc1ccc(C(=O)N3CC=CC3)cc1)C(=O)CN(C(=O)c1ccc(Cl)cc1)C2)N1CCOCC1 [Compd. of Ex. 68, 4-(4-chlorobenzoyl)-8-(3-morpholine-4-yl-3-oxopropyl)-1-[4-(2,5-dihydro-1H-pyrrol-1-ylcarbonyl)benzyl]-1,3,4,5-tetrahydrobenzo[e][1,4]diazepin-2-on] | 5.2
25.1 | 31600 | – | – | O=C(c1ccc(CN2C(=O)CN(C(=O)c3ccc(Cl)cc3)Cc3ccc(CCP(=O)(O)O)cc32)cc1)N1CCCC1 [Compd. of Ex. 71-1, [2-(4-(4-chlorobenzoyl)-2-oxo-1-(4-(1-pyrrolidinecarbonyl)benzyl)-2,3,4,5-tetrahydro-1H-benzo[e][1,4]-diazepin-8-yl)ethyl]phosphonic acid] | 5.0
7.94 | 39800 | – | – | O=C(c1ccc(CN2C(=O)CN(C(=O)c3ccc(Cl)cc3)Cc3ccc(CCP(=O)(O)O)cc32)cc1)N1CC=CC1 [Compd. of Ex. 73, [2-(4-(4-chlorobenzoyl)-2-oxo-1-[4-(2,5-dihydro-1H-pyrrol-1-ylcarbonyl)benzyl]-2,3,4,5-tetrahydro-1H-benzo[e][1,4]-diazepin-8-yl)ethyl]phosphonic acid] | 4.9
39.8 | 79400 | – | – | O=C(c1ccc(CN2C(=O)CN(C(=O)c3ccc(Cl)cc3)Cc3ccc(CCCO)cc32)cc1)N1CC=CC1 [Compd. of Ex. 90] | 5.0
79.4 | 63100 | – | – | O=C(O)C(F)(F)F.O=C(c1ccc(CN2C(=O)CN(C(=O)c3ccc(Cl)cc3)Cc3ccc(CCCN4CCCCC4)cc32)cc1)N1CC=CC1 [Compd. of Ex. 93, 8-(3-piperidin-1-yl-propyl)-1-[4-(2,5-dihydro-1H-pyrrol-1-ylcarbonyl)benzyl]-4-(4-chlorobenzoyl)-1,3,4,5-tetrahydro-benzo[e][1,4]diazepin-2-on trifluoroacetate] | 5.5
50.1 | > 100000 | – | – | N=C(c1ccc(CN2C(=O)CN(C(=O)c3ccc(Cl)cc3)Cc3ccccc32)cc1)N1CC=CC1.O=C(O)C(F)(F)F [Compd. of Ex. 107, 4-(4-chlorobenzoyl)-1-[4-(2,5-dihydro-1H-pyrrol-1-yl(imino)methyl)benzyl]-1,3,4,5-tetrahydrobenzo[e][1,4]-diazepin-2-on trifluoroacetate] | 5.5
63.1 | 39800 | – | – | CC(C)N1CCN(C(=O)CCc2ccc3c(c2)N(Cc2ccc(C(=O)N4CC=CC4)cc2)C(=O)CN(C(=O)c2ccc(Cl)cc2)C3)CC1.O=C(O)C(F)(F)F [Compd. of Ex. 115, 4-(4-chlorobenzoyl)-1-[4-(2,5-dihydro-1H-pyrrol-1-ylcarbonyl)benzyl]-8-[3-(4-isopropyl-1-piperazinyl)-3-oxo-propyl]-1,3,4,5-tetrahydrobenzo[e][1,4]diazepin-2-on trifluoroacetate] | 5.4
50.1 | > 100000 | – | – | CN1CCN=C1c1ccc(CN2C(=O)CN(C(=O)c3ccc(Cl)cc3)Cc3c(Cl)cccc32)cc1.O=C(O)C(F)(F)F [Compd. of Ex. 122, 6-chloro-4-(4-chlorobenzoyl)-1-[4-(1-methyl-4,5-dihydro-1H-imidazol-2-yl)benzyl]-1,3,4,5-tetrahydrobenzo[e][1,4]-diazepin-2-on trifluoroacetate] | 5.6
251 | > 100000 | – | – | CN1CCN=C1c1ccc(CN2C(=O)CN(C(=O)c3ccc(Cl)cc3)Cc3ccccc32)cc1.O=C(O)C(F)(F)F [Compd. of Ex. 125, 4-(4-chlorobenzoyl)-1-[4-(1-methyl-4,5-dihydro-1H-imidazol-2-yl)benzyl]-1,3,4,5-tetrahydrobenzo[e][1,4]-diazepin-2-on trifluoroacetate] | 5.6
794 | 39800 | – | – | CC(C)N1CCC(CN2C(=O)CN(C(=O)c3ccc(Cl)cc3)Cc3ccccc32)CC1.O=C(O)C(F)(F)F [Compd. of Ex. 142, 4-(4-chlorobenzoyl)-1-[(1-isopropyl-4-piperidinyl)methyl]-1,3,4,5-tetrahydrobenzo[e][1,4]diazepin-2-on trifluoroacetate] | 5.5
316 | 63100 | – | – | O=C(O)C(F)(F)F.O=C(c1ccc(Cl)cc1)N1CC(=O)N(CC2CCN(C3CCCCC3)CC2)c2ccccc2C1 [Compd. of Ex. 143, 4-(4-chlorobenzoyl)-1-[(1-cyclohexyl-4-piperidinyl)methyl]-1,3,4,5-tetrahydrobenzo[e][1,4]diazepin-2-on mono(trifluoroacetate)] | 5.4
200 | 79400 | – | – | CN1CCN=C1c1ccc(CN2C(=O)CN(C(=O)c3ccc(Cl)cc3)Cc3ccc(CCC(=O)N4CCOCC4)cc32)cc1.O=C(O)C(F)(F)F [Compd. of Ex. 144, 4-(4-chlorobenzoyl)-1-[4-(1-methyl-4,5-dihydro-1H-imidazol-2-yl)benzyl]-8-[3-(4-morpholinyl)-3-oxopropyl]-1,3,4,5-tetrahydrobenzo[e][1,4]diazepin-2-on mono(trifluoroacetate)] | 5.6
316 | > 100000 | – | – | CC(C)N1CCC(CCN2C(=O)CN(C(=O)c3ccc(Cl)cc3)Cc3ccccc32)CC1.O=C(O)C(F)(F)F [Compd. of Ex. 169, 4-(4-chlorobenzoyl)-1-[2-(1-isopropyl-4-piperidinyl)ethyl]-1,3,4,5-tetrahydrobenzo[e][1,4]diazepin-2-on trifluoroacetate] | 5.4
– | – | 7.1 | <4.0 | CN1CC[N+](C)=C1N1CCC(CCN2C(=O)CN(C(=O)c3ccc(Cl)cc3)Cc3ccccc32)CC1.O=C([O-])C(F)(F)F [Compd. of Ex. 178, 4-(4-chlorobenzoyl)-1-[2-(1-(1,3-dimethyl-4,5-dihydro-1H-imidazo-3-ium-2-yl)-4-piperidinyl)ethyl]-1,3,4,5-tetra-hydrobenzo[e][1,4]diazepin-2-on trifluoroacetate] | 5.8
79.4 | > 100000 | – | – | O=C(O)C(F)(F)F.O=C(c1ccc(CN2C(=O)CN(C(=O)c3ccc(Cl)cc3)Cc3ccccc32)nc1)N1CC=CC1 [Compd. of Ex. 181, 4-(4-chlorobenzoyl)-1-[(5-(2,5-dihydro-1H-pyrrol-1-ylcarbonyl)-2-pyridinyl)methyl]-1,3,4,5-tetrahydrobenzo[e][1,4]-diazepin-2-on trifluoroacetate] | 5.3
– | – | 7.1 | <4.0 | CN1CCN=C1c1ccc(CN2C(=O)CN(C(=O)c3ccc(Cl)cc3)Cc3ccc(C(=O)O)cc32)cc1.O=C(O)C(F)(F)F [Compd. of Ex. 203, 4-(4-chlorobenzoyl)-2-oxo-1-[4-(1-methyl-4,5-dihydro-1H-imidazol-2-yl)benzyl]-2,3,4,5-tetrahydro-1H-benzoyl[e][1,4]-diazepine-8-carboxylic acid trifluoroacetate] | 5.5
